Source: patent US20230089867A1, “CYCLIC PENTAMER COMPOUNDS AS PROPROTEIN CONVERTASE SUBTILISIN/KEXIN TYPE 9 (PCSK9) INHIBITORS FOR THE TREATMENT OF METABOLIC DISORDER” (Novartis AG, priority 2018, published 2023)

Molecular target: human PCSK9 (Homo sapiens, UniProt Q8NBP7)
Experiment: PCSK9 ligand binding TR-FRET assay (interference with binding of human PCSK9 to human LDLR)
Conditions: for Max % inhibition: PCSK9 FRET assay, efficacy (Amax), 100% = 1 uM unlabeled human PCSK9, 0% = DMSO; for IC50: TR-FRET, human PCSK9 Alexa Fluor 647 / human LDLR extracellular domain-Europium Kryptate, read-out: PCSK9 FRET Assay IC50
Summary of the method: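 Threefold compound dilutions were pre-incubated 30 min with PCSK9, after which 4 nM Europium Kryptate-tagged human LDLR ectodomain was added for a further 2 h.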

human PCSK9, sequence (Q8NBP7 153-692): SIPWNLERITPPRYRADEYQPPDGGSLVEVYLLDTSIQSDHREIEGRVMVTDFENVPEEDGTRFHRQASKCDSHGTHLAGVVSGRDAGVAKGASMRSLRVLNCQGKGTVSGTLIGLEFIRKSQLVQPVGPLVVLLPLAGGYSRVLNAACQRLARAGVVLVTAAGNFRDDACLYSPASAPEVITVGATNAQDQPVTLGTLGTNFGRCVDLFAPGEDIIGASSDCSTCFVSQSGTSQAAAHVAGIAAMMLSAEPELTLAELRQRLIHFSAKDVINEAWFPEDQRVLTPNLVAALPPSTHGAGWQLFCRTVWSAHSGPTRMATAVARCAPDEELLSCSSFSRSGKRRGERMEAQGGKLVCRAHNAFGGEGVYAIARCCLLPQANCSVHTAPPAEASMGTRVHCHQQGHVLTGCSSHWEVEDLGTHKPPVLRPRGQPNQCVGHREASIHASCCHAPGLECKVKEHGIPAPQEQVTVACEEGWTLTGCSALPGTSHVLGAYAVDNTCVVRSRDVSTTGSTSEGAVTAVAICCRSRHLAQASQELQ
human PCSK9, sequence (Q8NBP7 31-152 partner limits assumed): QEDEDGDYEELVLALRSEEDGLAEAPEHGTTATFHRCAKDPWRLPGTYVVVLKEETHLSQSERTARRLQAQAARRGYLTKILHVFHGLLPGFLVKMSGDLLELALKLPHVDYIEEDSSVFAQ

| Max % inhibition [%] | IC50 [nM] | SMILES |
| --- | --- | --- |
| 103.69 | 4 | CCC[C@@H](O)[C@@H]1CC(=O)N(Cc2ccc(Cl)cc2Oc2ccc(-c3cnc(CN(C)C)n3C)cc2)[C@@H](C)C(=O)N[C@@H](COC)C(=O)N(C)[C@@H](Cc2ccc(Cl)cc2)CC(=O)NC[C@H](C)N(C)C1=O [Compound 75, (2S,5S,8S,13S,16S)-1-(4-chloro-2-(4-(2-((dimethylamino)methyl)-1-methyl-1H-imidazol-5-yl)phenoxy)benzyl)-8-(4-chlorobenzyl)-16-((R)-1-hydroxybutyl)-5-(methoxymethyl)-2,7,13,14-tetramethyl-1,4,7,11,14-pentaazacyclooctadecane-3,6,10,15,18-pentaone] |
| 96.97 | 1 | COC[C@@H]1NC(=O)[C@H](C)N(Cc2ccc(Cl)cc2Oc2ccc(-c3cnc(CN4CCC4)n3C)cc2)C(=O)C[C@@H](Cc2ccccc2)C(=O)N(C)[C@@H](C)CNC(=O)C[C@H](Cc2ccc(Cl)cc2)N(C)C1=O [Compound 76, (2S,5S,8S,13S,16R)-1-(2-(4-(2-(azetidin-1-ylmethyl)-1-methyl-1H-imidazol-5-yl)phenoxy)-4-chlorobenzyl)-16-benzyl-8-(4-chlorobenzyl)-5-(methoxymethyl)-2,7,13,14-tetramethyl-1,4,7,11,14-pentaazacyclooctadecane-3,6,10,15,18-pentaone] |
| 104.08 | 9 | COC[C@@H]1NC(=O)[C@H](C)N(Cc2ccc(Cl)cc2Oc2ccc(-c3cnc(CN(C)C)n3C)cc2)C(=O)C[C@@H](Cc2ccccc2)C(=O)N(C)[C@@H]2C[C@@H]2NC(=O)C[C@H](Cc2ccc(Cl)cc2)N(C)C1=O [Compound 77, (1S,5S,8S,11S,15R,18R)-15-benzyl-12-(4-chloro-2-(4-(2-((dimethylamino)methyl)-1-methyl-1H-imidazol-5-yl)phenoxy)benzyl)-5-(4-chlorobenzyl)-8-(methoxymethyl)-6,11,17-trimethyl-2,6,9,12,17-pentaazabicyclo[16.1.0]nonadecane-3,7,10,13,16-pentaone] |
| 103.62 | 6.3 | COC[C@@H]1NC(=O)[C@H](C)N(Cc2ccc(C(F)(F)F)cc2Oc2ccc(-c3cnc(CN4CCCC4)n3C)cc2)C(=O)C[C@@H](Cc2ccccc2)C(=O)N(C)[C@@H](C)CNC(=O)C[C@H](Cc2ccc(Cl)cc2)N(C)C1=O [Compound 80, (2S,5S,8S,13S,16R)-16-benzyl-8-(4-chlorobenzyl)-5-(methoxymethyl)-2,7,13,14-tetramethyl-1-(2-(4-(1-methyl-2-(pyrrolidin-1-ylmethyl)-1H-imidazol-5-yl)phenoxy)-4-(trifluoromethyl)benzyl)-1,4,7,11,14-pentaazacyclooctadecane-3,6,10,15,18-pentaone] |
| 87.86 | 34.5 | CCC/C=C/c1ncc(-c2ccc(Oc3cc(Cl)ccc3CN3C(=O)C[C@@H](Cc4ccccc4)C(=O)N(C)[C@@H](C)CNC(=O)C[C@H](Cc4ccc(Cl)cc4)N(C)C(=O)[C@H](COC)NC(=O)[C@@H]3C)cc2)n1C [Compound 81, (2S,5S,8S,13S,16R)-16-benzyl-1-(4-chloro-2-(4-(1-methyl-2-((E)-pent-1-en-1-yl)-1H-imidazol-5-yl)phenoxy)benzyl)-8-(4-chlorobenzyl)-5-(methoxymethyl)-2,7,13,14-tetramethyl-1,4,7,11,14-pentaazacyclooctadecane-3,6,10,15,18-pentaone] |
| 99.99 | 1.3 | COC[C@@H]1NC(=O)[C@H](CC(=O)O)N(Cc2ccc(Cl)cc2Oc2ccc(-c3cnc(CN(C)C)n3C)cc2)C(=O)C[C@@H](Cc2ccccc2)C(=O)N(C)[C@@H](C)CNC(=O)C[C@H](Cc2ccc(Cl)cc2)N(C)C1=O [Compound 82, 2-((2S,5S,8S,13S,16R)-16-benzyl-1-(4-chloro-2-(4-(2-((dimethylamino)methyl)-1-methyl-1H-imidazol-5-yl)phenoxy)benzyl)-8-(4-chlorobenzyl)-5-(methoxymethyl)-7,13,14-trimethyl-3,6,10,15,18-pentaoxo-1,4,7,11,14-pentaazacyclooctadecan-2-yl)acetic acid] |
| 56.62 | 20.5 | CNc1ncc(-c2ccc(Oc3cc(Cl)ccc3CN3C(=O)C[C@@H](Cc4ccccc4)C(=O)N(C)[C@@H](C)CNC(=O)C[C@H](Cc4ccc(Cl)cc4)N(C)C(=O)[C@H](COC)NC(=O)[C@@H]3C)cc2)cn1 [Compound 86, (2S,5S,8S,13S,16R)-16-benzyl-1-(4-chloro-2-(4-(2-(methylamino)pyrimidin-5-yl)phenoxy)benzyl)-8-(4-chlorobenzyl)-5-(methoxymethyl)-2,7,13,14-tetramethyl-1,4,7,11,14-pentaazacyclooctadecane-3,6,10,15,18-pentaone] |
| 87.74 | 497 | COC[C@@H]1NC(=O)[C@H](CCO)N(Cc2ccc(Cl)cc2Oc2ccc(-c3cnc(CN(C)C)n3C)cc2)C(=O)C[C@@H](Cc2ccccc2)C(=O)N(C)[C@@H](C)CNC(=O)C[C@H](Cc2ccc(Cl)cc2)N(C)C1=O [Compound 87, (2S,5S,8S,13S,16R)-16-benzyl-1-(4-chloro-2-(4-(2-((dimethylamino)methyl)-1-methyl-1H-imidazol-5-yl)phenoxy)benzyl)-8-(4-chlorobenzyl)-2-(2-hydroxyethyl)-5-(methoxymethyl)-7,13,14-trimethyl-1,4,7,11,14-pentaazacyclooctadecane-3,6,10,15,18-pentaone] |

More lines, now with the values behind:

| SMILES | Max % inhibition [%] | IC50 [nM] |
| --- | --- | --- |
| COC[C@@H]1NC(=O)[C@@H](C)N(Cc2ccc(C(F)F)cc2Oc2ccc(-c3cnc(CN(C)C)n3C)cc2)C(=O)C[C@@H](Cc2ccccc2)C(=O)N(C)[C@@H](C)CNC(=O)C[C@H](Cc2ccc(Cl)cc2)N(C)C1=O [Compound 74, (2R,5S,8S,13S,16R)-16-benzyl-8-(4-chlorobenzyl)-1-(4-(difluoromethyl)-2-(4-(2-((dimethylamino)methyl)-1-methyl-1H-imidazol-5-yl)phenoxy)benzyl)-5-(methoxymethyl)-2,7,13,14-tetramethyl-1,4,7,11,14-pentaazacyclooctadecane-3,6,10,15,18-pentaone] | 104.33 | 46.5 |
| COC[C@@H]1NC(=O)[C@H](COC)N(Cc2ccc(Cl)cc2Oc2ccc(-c3cnc(CN(C)C)n3C)cc2)C(=O)C[C@@H](Cc2ccccc2)C(=O)N(C)[C@@H](C)CNC(=O)C[C@H](Cc2ccc(Cl)cc2)N(C)C1=O [Compound 78, (2S,5S,8S,13S,16R)-16-benzyl-1-(4-chloro-2-(4-(2-((dimethylamino)methyl)-1-methyl-1H-imidazol-5-yl)phenoxy)benzyl)-8-(4-chlorobenzyl)-2,5-bis(methoxymethyl)-7,13,14-trimethyl-1,4,7,11,14-pentaazacyclooctadecane-3,6,10,15,18-pentaone] | 97.49 | 94.6 |
| C[C@H]1C(=O)N[C@@H](COC(F)F)C(=O)N(C)[C@@H](Cc2ccc(Cl)cc2)CC(=O)N[C@H]2CCCC[C@@H]2N(C)C(=O)[C@H](Cc2ccccc2)CC(=O)N1Cc1ccc(Cl)cc1Oc1ccc(-c2cnc(CN(C)C)n2C)cc1 [Compound 79, (4S,7S,10S,14R,16aS,20aS)-14-benzyl-11-(4-chloro-2-(4-(2-((dimethylamino)methyl)-1-methyl-1H-imidazol-5-yl)phenoxy)benzyl)-4-(4-chlorobenzyl)-7-((difluoromethoxy)methyl)-5,10,16-trimethylhexadecahydrobenzo[l][1,4,7,11,14]pentaazacyclooctadecine-2,6,9,12,15(3H)-pentaone] | 103.04 | 1.8 |
| COC[C@@H]1NC(=O)[C@H](C)N(Cc2ccc(Cl)cc2Oc2ccc(-c3cnc(CN4CCCC4)n3C)cc2)C(=O)C[C@@H](Cc2ccccc2)C(=O)N(C)[C@@H](CCF)CNC(=O)C[C@H](Cc2ccc(Cl)cc2)N(C)C1=O [Compound 83, (2S,5S,8S,13S,16R)-16-benzyl-1-(4-chloro-2-(4-(1-methyl-2-(pyrrolidin-1-ylmethyl)-1H-imidazol-5-yl)phenoxy)benzyl)-8-(4-chlorobenzyl)-13-(2-fluoroethyl)-5-(methoxymethyl)-2,7,14-trimethyl-1,4,7,11,14-pentaazacyclooctadecane-3,6,10,15,18-pentaone] | 99.18 | 1.7 |
| CCc1ccc(CN2C(=O)C[C@@H](Cc3ccccc3)C(=O)N(C)[C@H]3CCCC[C@@H]3NC(=O)C[C@H](Cc3ccc(Cl)cc3)N(C)C(=O)[C@H](COC)NC(=O)[C@@H]2C)c(Oc2ccc(-c3cnc([C@@H](C)N(C)C)n3C)cc2)c1 [Compound 85, (4S,7S,10S,14R,16aS,20aS)-14-benzyl-4-(4-chlorobenzyl)-11-(2-(4-(2-((R)-1-(dimethylamino)ethyl)-1-methyl-1H-imidazol-5-yl)phenoxy)-4-ethylbenzyl)-7-(methoxymethyl)-5,10,16-trimethylhexadecahydrobenzo[l][1,4,7,11,14]pentaazacyclooctadecine-2,6,9,12,15(3H)-pentaone] | 114.68 | 0.9 |
| COC[C@@H]1NC(=O)[C@H](C)N(Cc2c(C)cccc2Oc2ccc(-c3cnc(CN(C)C)n3C)cc2)C(=O)C[C@@H](Cc2ccccc2)C(=O)N(C)[C@@H](C)CNC(=O)C[C@H](Cc2ccc(Cl)cc2)N(C)C1=O [Compound 88, (2S,5S,8S,13S,16R)-16-benzyl-8-(4-chlorobenzyl)-1-(2-(4-(2-((dimethylamino)methyl)-1-methyl-1H-imidazol-5-yl)phenoxy)-6-methylbenzyl)-5-(methoxymethyl)-2,7,13,14-tetramethyl-1,4,7,11,14-pentaazacyclooctadecane-3,6,10,15,18-pentaone] | 90.30 | 40.1 |
